# Assays:
# Assay type in all cases: cell-based
# [1] = tested on: breast cancer cells (MCF7 cells); experiment: Clonogenic cytotoxicity assay, breast cancer cells; conditions: Homo sapiens, cell line not named in the sentence (FIG. 9: MCF7 and 184A1)
# Method: Certain compounds of the invention were tested in both an MTT cytotoxicity assay and clonogenic cytotoxicity assay against breast cancer cells (MCF7 cells) and normal breast tissue cells (184A1 cells) to determine the cytotoxic effect of such cells as a function of concentration.
# Specifically, the compounds tested included: N-(6-(hydroxyamino)-6-oxohexyl)-3-methyl-1H-indole-2-carboxamide (SP-1-161); -hydroxy-N^6-(2-(2-methyl-1H-indol-3-yl)ethyl)octanediamide (SP-1-163); (S)—N-(6-(hydroxyamino)-6-oxohexyl)-1-tosylindoline-2-carboxamide (SP-1-169); and (S)-1-((5-(dimethylamino)naphthalene-1-yl)sulfonyl)-N-(6-(hydroxyamino)-6-oxoheyl)indoline-carboxamide (SP-1-171).
# [2] = tested on: healthy breast epithelial cells (184A1 cells); experiment: Radiation clonogenic survival, normal breast epithelial cells; conditions: compound at IC50 concentration for 24 h, then gamma radiation; compared with DIM
# Method: (§1) N-(6-(hydroxyamino)-6-oxohexyl)-3-methyl-1H-indole-2-carboxamide (SP-1-161) was tested against DIM in a radiation clonogenic survival study with healthy breast epithelial cells (184A1 cells) (FIG. 11A) and breast cancer cells (MCF7 cells) (FIG. 11B). After treatment with the compounds of the invention for 24 hours, the cells were exposed to graded doses of gamma radiation.
# (§2) Logarithmically growing cells were seeded into T-25 flasks at various densities to yield approximately 50-100 colonies/flask. After incubation for 24 h at 37° C., cells were treated or not with the compound at the IC50 concentration for 24 h followed by sham or irradiation at room temperature using a Mark-30 irradiator with a 137-Cs source at a fixed dose rate of 2.27 Gy/min. After 10-14 days, cells were fixed and stained with crystal violet, and colonies of more than 50 cells were counted. The surviving fractions of the treated cells were normalized to the plating efficiencies of untreated controls. Radiation survival curves were fitted by computer to the single-hit, multitarget and the linear-quadratic models.
# (§3) The radiation sensitivity of cells is defined by the terminal slope of the radiation survival curve, which is referred to as D0. The steeper the slope, the smaller is the value of D0, and thus the more radiation sensitive the respective cells. […]
# [3] = tested on: normal prostate epithelial (RWPE1) cells vs prostate cancer (PC3) cells; experiment: MTT cytotoxicity assay, normal prostate epithelial cells versus prostate cancer cells
# Method: Certain compounds of the invention were tested in an MTT cytotoxicity assay against a breast cancer cell line (MCF7), prostate cancer cell line (PC3), cervical cancer cell line (CasKi), and head and neck cancer cell line (SQ20B). In the breast and prostate cancer MTT assays, certain compounds of the invention were also tested against normal breast (MCF10A) and prostate (RWPE1) epithelial tissues.
# Specifically, the compounds tested included SP-1-161, SP-1-229, and SP-1-303. Suberoylanilide hydroxamic acid (SAHA), a known HDAC inhibitor, was also tested in the assay as control.
# [4] = tested on: breast cancer cells (MCF7 cells); experiment: Radiation clonogenic survival, breast cancer cells; conditions: compound at IC50 concentration for 24 h, then gamma radiation; compared with DIM
# Method: as §1, §2, §3
structure (smiles),measurement,setting,value
"Cc1c(C(=O)NCCCCCC(=O)NO)[nH]c2ccccc12 [SP-1-161, N-(6-(hydroxyamino)-6-oxohexyl)-3-methyl-1H-indole-2-carboxamide]",IC50,[1],276 nM
same,protection of normal cells from radiation (184A1),[2],protected normal cells from radiation-mediated killing
same,fold less toxic in normal prostate epithelial (RWPE1) cells than in prostate cancer (PC3) cells,[3],15 fold
same,radiation sensitizing activity in breast cancer cells (MCF7),[4],demonstrated radiation sensitizing activity and further outperformed DIM
